Reference: US20160193148A1, “LIPOSOMAL FORMULATIONS FOR THE TREATMENT OF BACTERIAL INFECTIONS” (UNIVERSITY OF GEORGIA RESEARCH FOUNDATION, INC., priority 2013, published 2016)

System: R. equi
Assay: Intracellular killing of R. equi in J774.A1 macrophages
Format: cell-based, Rhodococcus equi
Details: 10 μg/mL; J774.A1 macrophages infected with virulent R. equi; 4 experiments
Protocol: The efficacy of liposomal gentamicin compared with clarithromycin or rifampin for intracellular killing of R. equi in J774.A1 macrophages were studies in this example. […] The final concentration of gentamicin in the liposome formulations was measured and the percentage of encapsulation was calculated.
In vitro infection of J774A.1 macrophages with virulent R. equi and subsequent treatment with liposomal gentamicin (G-DP or G-PEG), clarithromycin (CLR), or rifampin (RIF) at a concentration of 10 μg/mL was performed using a published methodology (i.e. Berghaus et al. Plasma pharmacokinetics, pulmonary distribution, and in vitro activity of gamithromycin in foals. J Vet Pharmacol Ther. 2012 February; 35(1):59-66). […] Fold reduction in the number of intracellular R. equi compared to untreated cells in J774.A1 macrophages infected with virulent R. equi are presented in FIG. 2, showing mean (±SD) of 4 independent experiments.

SMILES | mean fold-reduction in the number of intracellular R. equi compared to untreated cells
CC[C@H]1OC(=O)[C@H](C)[C@@H](O[C@H]2C[C@@](C)(OC)[C@@H](O)[C@H](C)O2)[C@H](C)[C@@H](O[C@@H]2O[C@H](C)C[C@H](N(C)C)[C@H]2O)[C@](C)(OC)C[C@@H](C)C(=O)[C@H](C)[C@@H](O)[C@]1(C)O [CLR, clarithromycin] | 1100 fold
CO[C@H]1/C=C/O[C@@]2(C)Oc3c(C)c(O)c4c(O)c(c(/C=N/N5CCN(C)CC5)c(O)c4c3C2=O)NC(=O)/C(C)=C\C=C\[C@H](C)[C@H](O)[C@@H](C)[C@@H](O)[C@@H](C)[C@H](OC(C)=O)[C@@H]1C [RIF, rifampin] | 1500 fold
